Results taken from patent US20260199309A1, “COMPOUNDS FOR THE TREATMENT OF CENTRA NERVOUS SYSTEM DISORDERS” (Autifony Therapeutics Limited, priority 2022, published 2026).

What was measured:
[1] = target: T1, human Kv3.1 channels (hKv3.1) (Homo sapiens, UniProt P48547); assay: Kv3.1 channel modulation, IonWorks Quattro planar array electrophysiology; type: cell-based; conditions: HEK-293 cells expressing human Kv3.1; for EC50: read-out: Kv3.1 pEC50 (converted); for Kv3.1 max R %: normalised to maximum effect of 50 microM reference compound
T1 construct: expressed in transfected cells
T1 sequence (P48547 1-511): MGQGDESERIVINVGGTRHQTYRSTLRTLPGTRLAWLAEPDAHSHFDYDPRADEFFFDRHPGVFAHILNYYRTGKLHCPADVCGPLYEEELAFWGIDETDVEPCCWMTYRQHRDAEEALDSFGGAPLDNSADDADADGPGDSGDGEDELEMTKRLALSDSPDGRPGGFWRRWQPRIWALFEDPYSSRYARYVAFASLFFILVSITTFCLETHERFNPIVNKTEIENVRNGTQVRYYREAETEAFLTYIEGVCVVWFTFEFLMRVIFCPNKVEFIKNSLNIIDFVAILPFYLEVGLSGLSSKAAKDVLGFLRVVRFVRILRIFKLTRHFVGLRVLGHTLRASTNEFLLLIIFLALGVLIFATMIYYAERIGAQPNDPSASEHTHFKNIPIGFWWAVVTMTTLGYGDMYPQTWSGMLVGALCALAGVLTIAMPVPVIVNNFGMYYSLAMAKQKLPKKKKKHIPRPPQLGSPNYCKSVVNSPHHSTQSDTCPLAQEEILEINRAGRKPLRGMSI

[2] = In vitro metabolic stability (CLint), rat; type: in vitro ADME; conditions: intrinsic clearance, incubation 0-30 minutes at 37° C. with NADPH regenerating system
Protocol: The objective of this study was to determine metabolic stability of test items in preclinical species and human liver microsomes. Verapamil and dextromethorphan were used as positive controls for microsomal incubation.
Incubation medium was prepared by combining 11.2 mL of potassium phosphate monobasic and 38.8 mL of potassium phosphate dibasic, diluted to 1 L with water. Cryopreserved microsomes were thawed and kept on ice until use. Microsomes were then diluted in incubation to a protein concentration of 0.56 mg/mL. Cells were centrifuged, re-suspended in medium and counted by means of a haemocytometer. Cell viability was measured using the Trypan Blue exclusion test.
NADPH regenerating system solution was prepared by dissolving 1.7 mg of NADP, 7.8 mg of G6P and 6 units of G6P-Dehydrogenase in 1 mL of 2% sodium bicarbonate solution (prepared by dissolving 20 g of NaHCO3 in 1 L of water).
Test compounds were separately dissolved in DMF to obtain 10 mM stock solutions that were further diluted in water/acetonitrile 50/50 (v/v) to obtain the corresponding 50 uM working solutions. Verapamil and dextromethorphan were dissolved in DMF in order to obtain a 10 mM verapamil solution and 10 mM dextromethorphan solution. These solutions were then diluted in the incubation medium in order to obtain a 50 uM verapamil working solution and a 50 uM dextromethorphan working solution.
800 μL-aliquots of NADPH regenerating system were pre-warmed at 37° C. for 5 minutes. […]
Metabolic stability was calculated from the peak area ratio of the remaining test compound with internal standard versus time. The intrinsic clearance (CLint) was determined from the first order elimination constant k (min^−1) (obtained from GraphPad by plotting the natural logarithm of the peak area ratio of the remaining test item with internal standard versus time), using the actual volume of the incubation V (mL), the amount of hepatocytes in the incubation M (million cells) and the hepatocellularity number per g liver Hn (120 for human).

CYP2C19 = CYP2C19 (Homo sapiens, UniProt P33261); assay: CYP450 inhibition, pro-fluorescent probe substrate (2C19/BMC); type: in vitro ADME; conditions: recombinant human CYP450, substrate BMC; top concentration 5.00E-05
CYP2C9 = CYP2C9 (Homo sapiens, UniProt P11712); assay: CYP450 inhibition, pro-fluorescent probe substrate (2C9/FCA); type: in vitro ADME; conditions: recombinant human CYP450, substrate FCA; top concentration 5.00E-05
CYP2D6 = CYP2D6 (Homo sapiens, UniProt P10635); assay: CYP450 inhibition, pro-fluorescent probe substrate (2D6/MMMC); type: in vitro ADME; conditions: recombinant human CYP450, substrate MMMC; top concentration 5.00E-05
[3] = currents at −15 mV voltage step, normalised to 50 microM reference compound and vehicle

Sequence of CYP2C19 (P33261 whole entry): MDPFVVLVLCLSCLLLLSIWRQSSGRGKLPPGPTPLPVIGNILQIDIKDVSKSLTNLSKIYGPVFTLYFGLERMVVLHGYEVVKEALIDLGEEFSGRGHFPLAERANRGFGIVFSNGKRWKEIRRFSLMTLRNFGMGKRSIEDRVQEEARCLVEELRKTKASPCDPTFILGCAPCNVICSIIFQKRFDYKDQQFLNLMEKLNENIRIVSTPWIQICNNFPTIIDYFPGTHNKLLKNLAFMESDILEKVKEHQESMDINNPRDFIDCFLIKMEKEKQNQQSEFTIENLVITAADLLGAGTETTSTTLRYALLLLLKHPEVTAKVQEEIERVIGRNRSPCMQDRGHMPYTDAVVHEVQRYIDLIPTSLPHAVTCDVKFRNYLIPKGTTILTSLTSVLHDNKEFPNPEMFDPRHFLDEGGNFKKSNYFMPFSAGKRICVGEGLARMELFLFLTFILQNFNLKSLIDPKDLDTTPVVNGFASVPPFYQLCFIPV
Sequence of CYP2D6 (P10635 whole entry): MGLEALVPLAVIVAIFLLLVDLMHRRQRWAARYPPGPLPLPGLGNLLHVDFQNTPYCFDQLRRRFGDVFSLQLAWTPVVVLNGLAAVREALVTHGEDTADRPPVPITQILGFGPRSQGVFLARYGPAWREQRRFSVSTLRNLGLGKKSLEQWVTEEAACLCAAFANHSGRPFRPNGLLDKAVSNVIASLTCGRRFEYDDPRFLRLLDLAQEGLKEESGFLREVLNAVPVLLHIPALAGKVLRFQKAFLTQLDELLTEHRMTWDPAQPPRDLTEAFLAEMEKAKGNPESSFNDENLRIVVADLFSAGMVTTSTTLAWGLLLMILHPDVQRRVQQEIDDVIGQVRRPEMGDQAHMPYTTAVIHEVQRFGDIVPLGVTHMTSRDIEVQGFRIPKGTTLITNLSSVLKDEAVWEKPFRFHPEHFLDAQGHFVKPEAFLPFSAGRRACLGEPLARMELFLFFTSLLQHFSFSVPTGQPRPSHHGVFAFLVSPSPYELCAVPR
Sequence of CYP2C9 (P11712 whole entry): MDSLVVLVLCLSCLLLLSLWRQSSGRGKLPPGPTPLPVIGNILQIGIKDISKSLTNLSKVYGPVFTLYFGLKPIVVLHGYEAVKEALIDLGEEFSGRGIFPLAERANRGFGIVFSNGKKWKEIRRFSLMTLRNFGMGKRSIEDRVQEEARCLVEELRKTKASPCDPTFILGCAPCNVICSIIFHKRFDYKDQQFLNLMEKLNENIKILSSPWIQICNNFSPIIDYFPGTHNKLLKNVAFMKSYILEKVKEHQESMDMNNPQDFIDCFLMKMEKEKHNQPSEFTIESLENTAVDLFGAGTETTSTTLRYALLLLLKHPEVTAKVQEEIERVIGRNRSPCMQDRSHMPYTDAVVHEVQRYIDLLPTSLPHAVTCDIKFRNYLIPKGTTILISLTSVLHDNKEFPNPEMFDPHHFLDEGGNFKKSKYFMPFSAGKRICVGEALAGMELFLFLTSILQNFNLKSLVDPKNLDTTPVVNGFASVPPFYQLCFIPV

| SMILES | Kv3.1 pEC50 [1, 3] | EC50 [1, 3] [nM] | Kv3.1 max R % [1] [%] | CLi rat [2] [mL/min/g liver] | IC50 (CYP2C19) [nM] | IC50 (CYP2C9) [nM] | IC50 (CYP2D6) [nM] |
| --- | --- | --- | --- | --- | --- | --- | --- |
| Cc1ccc(Oc2ccc(N3C(=O)NC(C)(C)C3=O)c(N)n2)c2c1OCC21CC1 [Example 1, 3-[2-amino-6-(7-methylspiro[2H-benzofuran-3,1′-cyclopropane]-4-yl)oxy-3-pyridyl]-5,5-dimethyl-imidazolidine-2,4-dione] | 6.6 | 251 | 183 | 5.4 | > 50000 | 8600 | > 50000 |
| COc1nc(Oc2ccc(C)c3c2C2(CC2)CO3)ccc1N1C(=O)NC(C)(C)C1=O [Reference Example 2, reference compound] | – | 1000 | – | 8.7 | 1100 | 100 | > 50000 |
| CC1(C)NC(=O)N(c2ccc(Oc3cccc(OC(F)(F)F)c3)nc2N)C1=O [Example 9, 3-[2-amino-6-[3-(trifluoromethoxy)phenoxy]-3-pyridyl]-5,5-dimethyl-imidazolidine-2,4-dione] | – | 2510 | 118 | <0.5 | 21000 | > 50000 | > 50000 |
